Experimental data published in PubChem BioAssay (NCI).
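Compound exposure: 48 hours, 5 concentrations, 96-well plates. The concentration for full growth arrest is given as TGI.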

Key:
Test in all cases: NCI tumour cell line growth inhibition, 48 h
OVCAR-5 ovarian = test system: OVCAR-5 ovarian
CCRF-CEM leukemia = test system: CCRF-CEM leukemia
RXF-631 renal = test system: RXF-631 renal
A498 renal = test system: A498 renal
HOP-92 NSCLC = test system: HOP-92 NSCLC
M19-MEL melanoma = test system: M19-MEL melanoma
RPMI-8226 leukemia = test system: RPMI-8226 leukemia
A549 NSCLC = test system: A549 NSCLC
U251 CNS = test system: U251 CNS
ACHN renal = test system: ACHN renal
HOP-18 NSCLC = test system: HOP-18 NSCLC
K-562 leukemia = test system: K-562 leukemia
OVCAR-3 ovarian = test system: OVCAR-3 ovarian
786-0 renal = test system: 786-0 renal
SR leukemia = test system: SR leukemia
NCI-H23 lung = test system: NCI-H23 lung
HCT-116 colon = test system: HCT-116 colon
MALME-3M melanoma = test system: MALME-3M melanoma
COLO 205 colon = test system: COLO 205 colon
SK-MEL-28 melanoma = test system: SK-MEL-28 melanoma
NCI-H522 lung = test system: NCI-H522 lung
LXFL 529 NSCLC = test system: LXFL 529 NSCLC
UACC-62 melanoma = test system: UACC-62 melanoma
SW-620 colon = test system: SW-620 colon
HL-60(TB) leukemia = test system: HL-60(TB) leukemia
LOX IMVI melanoma = test system: LOX IMVI melanoma
MOLT-4 leukemia = test system: MOLT-4 leukemia
SK-OV-3 ovarian = test system: SK-OV-3 ovarian
DLD-1 colon = test system: DLD-1 colon
HOP-62 NSCLC = test system: HOP-62 NSCLC
DMS 114 small cell lung = test system: DMS 114 small cell lung
UACC-257 melanoma = test system: UACC-257 melanoma
M14 melanoma = test system: M14 melanoma
IGROV1 ovarian = test system: IGROV1 ovarian
SNB-78 CNS = test system: SNB-78 CNS
SF-539 CNS = test system: SF-539 CNS
SF-295 CNS = test system: SF-295 CNS
SN12C renal = test system: SN12C renal
TK-10 renal = test system: TK-10 renal
SNB-75 CNS = test system: SNB-75 CNS
UO-31 renal = test system: UO-31 renal
NCI-H460 lung = test system: NCI-H460 lung
OVCAR-4 ovarian = test system: OVCAR-4 ovarian
OVCAR-8 ovarian = test system: OVCAR-8 ovarian
SNB-19 CNS = test system: SNB-19 CNS
KM12 colon = test system: KM12 colon
HT29 colon = test system: HT29 colon
SK-MEL-5 melanoma = test system: SK-MEL-5 melanoma
CAKI-1 renal = test system: CAKI-1 renal
NCI-H226 lung = test system: NCI-H226 lung
SK-MEL-2 melanoma = test system: SK-MEL-2 melanoma
KM20L2 colon = test system: KM20L2 colon
HCT-15 colon = test system: HCT-15 colon
SF-268 CNS = test system: SF-268 CNS
XF 498 CNS = test system: XF 498 CNS
DMS 273 small cell lung = test system: DMS 273 small cell lung
EKVX NSCLC = test system: EKVX NSCLC
HCC-2998 colon = test system: HCC-2998 colon

## CCN(CC)CCNc1ccc2nnn3c4ccc(OC)cc4c(=O)c1c23
OVCAR-5 ovarian
  TGI: 23.7 µM
CCRF-CEM leukemia
  TGI: 32.7 µM
RXF-631 renal
  TGI: 16.3 µM
A498 renal
  TGI: 27 µM
HOP-92 NSCLC
  TGI: 19.5 µM
M19-MEL melanoma
  TGI: 26.3 µM
RPMI-8226 leukemia
  TGI: 14.9 µM
A549 NSCLC
  TGI: 19.4 µM
U251 CNS
  TGI: 22.3 µM
ACHN renal
  TGI: 21.7 µM
HOP-18 NSCLC
  TGI: 23.2 µM
K-562 leukemia
  TGI: 20.1 µM
OVCAR-3 ovarian
  TGI: 31.4 µM
786-0 renal
  TGI: 17.9 µM
SR leukemia
  TGI: 7.21 µM
NCI-H23 lung
  TGI: 20.9 µM
HCT-116 colon
  TGI: 14.5 µM
MALME-3M melanoma
  TGI: 22.3 µM
COLO 205 colon
  TGI: 20.4 µM
SK-MEL-28 melanoma
  TGI: 28.9 µM
NCI-H522 lung
  TGI: 19.6 µM
LXFL 529 NSCLC
  TGI: 21.4 µM
UACC-62 melanoma
  TGI: 25.7 µM
SW-620 colon
  TGI: 17.1 µM
HL-60(TB) leukemia
  TGI: 22.3 µM
LOX IMVI melanoma
  TGI: 11.1 µM
MOLT-4 leukemia
  TGI: 13.1 µM
SK-OV-3 ovarian
  TGI: 34.6 µM
DLD-1 colon
  TGI: 22 µM
HOP-62 NSCLC
  TGI: 23.8 µM
DMS 114 small cell lung
  TGI: 21.2 µM
UACC-257 melanoma
  TGI: 25.1 µM
M14 melanoma
  TGI: 23.5 µM
IGROV1 ovarian
  TGI: 22.9 µM
SNB-78 CNS
  TGI: 25.8 µM
SF-539 CNS
  TGI: 17.2 µM
SF-295 CNS
  TGI: 18.6 µM
SN12C renal
  TGI: 19.9 µM
TK-10 renal
  TGI: 23.9 µM
SNB-75 CNS
  TGI: 21 µM
UO-31 renal
  TGI: 22.2 µM
NCI-H460 lung
  TGI: 13.3 µM
OVCAR-4 ovarian
  TGI: 19.9 µM
OVCAR-8 ovarian
  TGI: 19.9 µM
SNB-19 CNS
  TGI: 25.9 µM
KM12 colon
  TGI: 13.9 µM
HT29 colon
  TGI: 15.9 µM
SK-MEL-5 melanoma
  TGI: 25.5 µM
CAKI-1 renal
  TGI: 27.6 µM
NCI-H226 lung
  TGI: 20 µM
SK-MEL-2 melanoma
  TGI: 27.4 µM
KM20L2 colon
  TGI: 20 µM
HCT-15 colon
  TGI: 18.7 µM
SF-268 CNS
  TGI: 20.6 µM

## CC1=NOC(=O)/C1=C/c1ccccc1O
OVCAR-5 ovarian
  TGI: > 100 µM
CCRF-CEM leukemia
  TGI: > 100 µM
RXF-631 renal
  TGI: > 100 µM
HOP-92 NSCLC
  TGI: > 100 µM
M19-MEL melanoma
  TGI: > 100 µM
A549 NSCLC
  TGI: > 100 µM
U251 CNS
  TGI: > 100 µM
ACHN renal
  TGI: > 100 µM
HOP-18 NSCLC
  TGI: > 100 µM
K-562 leukemia
  TGI: > 100 µM
XF 498 CNS
  TGI: > 100 µM
OVCAR-3 ovarian
  TGI: > 100 µM
786-0 renal
  TGI: > 100 µM
SR leukemia
  TGI: > 100 µM
NCI-H23 lung
  TGI: > 100 µM
HCT-116 colon
  TGI: > 100 µM
MALME-3M melanoma
  TGI: > 100 µM
COLO 205 colon
  TGI: > 100 µM
SK-MEL-28 melanoma
  TGI: > 100 µM
NCI-H522 lung
  TGI: > 100 µM
LXFL 529 NSCLC
  TGI: > 100 µM
UACC-62 melanoma
  TGI: > 100 µM
SW-620 colon
  TGI: 73.9 µM
HL-60(TB) leukemia
  TGI: > 100 µM
LOX IMVI melanoma
  TGI: > 100 µM
MOLT-4 leukemia
  TGI: > 100 µM
SK-OV-3 ovarian
  TGI: > 100 µM
DLD-1 colon
  TGI: > 100 µM
HOP-62 NSCLC
  TGI: > 100 µM
DMS 114 small cell lung
  TGI: > 100 µM
UACC-257 melanoma
  TGI: > 100 µM
M14 melanoma
  TGI: > 100 µM
IGROV1 ovarian
  TGI: > 100 µM
SNB-78 CNS
  TGI: > 100 µM
SF-539 CNS
  TGI: > 100 µM
SF-295 CNS
  TGI: > 100 µM
SN12C renal
  TGI: > 100 µM
TK-10 renal
  TGI: > 100 µM
SNB-75 CNS
  TGI: > 100 µM
UO-31 renal
  TGI: > 100 µM
NCI-H460 lung
  TGI: > 100 µM
DMS 273 small cell lung
  TGI: > 100 µM
OVCAR-4 ovarian
  TGI: > 100 µM
OVCAR-8 ovarian
  TGI: > 100 µM
SNB-19 CNS
  TGI: > 100 µM
KM12 colon
  TGI: > 100 µM
HT29 colon
  TGI: > 100 µM
SK-MEL-5 melanoma
  TGI: > 100 µM
CAKI-1 renal
  TGI: > 100 µM
NCI-H226 lung
  TGI: > 100 µM
SK-MEL-2 melanoma
  TGI: > 100 µM
KM20L2 colon
  TGI: > 100 µM
EKVX NSCLC
  TGI: > 100 µM
HCT-15 colon
  TGI: > 100 µM
HCC-2998 colon
  TGI: > 100 µM
SF-268 CNS
  TGI: > 100 µM
